Experimental data from patent publication US20250170239A1, “CELLULAR REPROGRAMMING BY TARGETING THE GOLGI APPARATUS” (MUSC Foundation for Research Development, priority 2023, published 2025).
“Also recorded” adds a separate entry of the source. Read-outs that look alike come from different tables or passages of the source.

Key:
Prdx4 knockdown T cells = test: Prdx4 siRNA knockdown Pmel T cells under Golgi/oxidative stress; format: cell-based, mouse
Description: (§1) (FIG. 22A) Pmel T cells were activated for 3 days before treatment with vehicle or 50 mM H2O2 for 6 hrs. Prdx4-Golgi colocalization was assessed by PLA using mouse anti-Giantin and rabbit anti-Prdx4 antibodies. (FIG. 22B) Activated Pmel T cells treated with vehicle or 50 mM H2O2 for 6 hrs or 24 hrs with Monensin (1 mM). PLA assay was performed using anti-Giantin and anti-Prdx4 antibodies. (FIG. 22C) Experimental design using Prdx4-targeted siRNA to silence expression of Prdx4 in Pmel T cells. (FIG. 22D) GM130 expression assessed under control versus Monensin (1 μM) conditions in T cells treated with control-siRNA or Prdx4-siRNA. (FIG. 22E) GM130 expression assessed under control versus 50 mM H2O2 conditions in T cells treated with control-siRNA or Prdx4-siRNA+/−0.5 mM GYY4137. (FIG. 22F) Protein translation assessed in Pmel T cells activated+/−GYY4137 and treated with control-siRNA or Prdx4-siRNA. (FIG. 22G) GM130 expression in Pmel T cells treated with vehicle, GYY4137, or Catalase (10 μg/mL). (FIGS. 22H and 22I) Site directed mutagenesis performed to mutate cysteine-54 of the Prdx4 gene. Prdx4-targeted shRNA was used to knock down expression of Prdx4 in Jurkat T cells, followed by transfection with plasmid containing wildtype or mutated Prdx4. (FIG. 22I) GM130 expression assessed after treatment with 50 mM H2O2+/−GYY4137. (FIG. 22J) B16-F10 tumors were injected s.c. into flanks of Pmel mice and grown to ˜100 mm2. TILs and T cells from tumor-draining lymph nodes were isolated via Ficoll spin followed by magnetic bead positive selection. FACS analysis of Prdx4 expression in TILs gated on PD1loLag3lo vs PD1hiLag3hi. (FIG. 22K) Lentiviral supernatant was generated using GFP-tagged control plasmid or GFP-tagged Prdx4-overexpression plasmid. Pmel T cells were transduced with control or Prdx4 lentivirus. Pmel T cells overexpressing Prdx4 and control T cells were treated with H2O2 (50 mM) followed by staining with anti-GM130.
Given the delicate redox balance necessary for the native disulfide bonds, it was postulated that a localized mechanism for the detection and elimination of ROS produced during the oxidative folding process may require Prdx4. Thus, it was hypothesized that ER and Golgi network stress mitigated by H2S is mediated through the Prdx4 localization and activity in these organelles. First, it was established if Prdx4 also localizes within the Golgi apparatus in T cells using a proximity ligation assay (PLA), a tool that allows in situ detection of endogenous proteins with high specificity and sensitivity, with antibodies directed against Giantin (a conserved Golgi membrane protein) and Prdx4. […] Next, using siRNA targeting Prdx4, expression of Prdx4 in CD8+ Pmel T cells was knocked down (FIG. 22C, FIGS. 23A and 23B). The cells were then subjected to conditions of oxidative and Golgi stress in the presence or absence of H2S treatment. […] Then, to determine whether the protective effect of H2S on Golgi stress is dependent on the presence of Prdx4, Golgi stress was induced in the presence or absence of H2S with control (siCtl) and Prdx4 knockdown (siPrdx4) T cells.

[1] = system: Prdx4-Golgi colocalization; conditions: 50 mM H2O2 24 hrs
Description: as §1, with “(FIG. 22J) B16-F10 tumors were injected s.c. into flanks of Pmel mice and grown to ˜100 mm2. TILs and T cells from tumor-draining lymph nodes were isolated via Ficoll spin followed by magnetic bead positive selection. FACS analysis of Prdx4 expression in TILs gated on PD1loLag3lo vs PD1hiLag3hi. (FIG. 22K) Lentiviral supernatant was generated using GFP-tagged control plasmid or GFP-tagged Prdx4-overexpression plasmid. Pmel T cells were transduced with control or Prdx4 lentivirus. Pmel T cells overexpressing Prdx4 and control T cells were treated with H2O2 (50 mM) followed by staining with anti-GM130.” left out

Jurkat cells = conditions: 50 mM H2O2 +/− GYY4137; wildtype vs C51A Prdx4
Description: as §1, with “(FIG. 22J) B16-F10 tumors were injected s.c. into flanks of Pmel mice and grown to ˜100 mm2. TILs and T cells from tumor-draining lymph nodes were isolated via Ficoll spin followed by magnetic bead positive selection. FACS analysis of Prdx4 expression in TILs gated on PD1loLag3lo vs PD1hiLag3hi. (FIG. 22K) Lentiviral supernatant was generated using GFP-tagged control plasmid or GFP-tagged Prdx4-overexpression plasmid. Pmel T cells were transduced with control or Prdx4 lentivirus. Pmel T cells overexpressing Prdx4 and control T cells were treated with H2O2 (50 mM) followed by staining with anti-GM130.” left out

[2] = system: phospho-PERK, phospho-IRE1a, ATF4; conditions: 12-hr incubation with 50 mM H2O2
Tet = conditions: CD8+ T cells with or without 0.5 mM GYY4137
Description: On day 3, the cells were collected and TET activity was assessed using nuclear protein extract from CD8+ T cells treated with or without 0.5 mM GYY4137.

Pmel CD8+ T cells = conditions: for Golgi stress (GM130 expression): TME exhaustion model
Excerpt: The solid tumor microenvironment is characterized as being highly immunosuppressive, leading to T cell exhaustion. Thus, an in vitro model of TME-induced T cell exhaustion using supernatants collected from B16-F10 murine melanoma cells along with chronic antigen stimulation was used.25 Pmel CD8+ T cells were activated and cultured under optimal culture conditions, with tumor supernatant plus repeated stimulation with gp100, or with tumor supernatant plus repeated stimulation with gp100 plus H2S donor (FIG. 12I). This model was used to determine the impact of T cell exhaustion on Cbs expression and H2S production by gating Pmel T cells on TIM3+PD1+ (terminally exhausted) and TIM3−PD1− cells.
Once the tumors reached a size of approximately 150 mm2, the mice were euthanized and the tumors were removed. The tumors were then processed into single cell suspension using a mouse tumor dissociation kit (Miltenyi, #130-096-730). […] After 5 days of culture without changing the media, the supernatant was removed from the wells and spun down to remove any tumor cells. 3-day activated Pmel T cells were then resuspended in the tumor supernatant along with 0.1 ug/mL of gp100 antigen. To promote chronic antigen stimulation, 0.1 μg/mL gp100 was added every day for 4 days. After 4 days of culture with tumor supernatant and chronic stimulation, the T cells were removed and analyzed for expression of exhaustion markers and functional assays.

Cbs-KO T cells = Cbs-KO T cells activated with anti-CD3/anti-CD28 with or without H2S
[3] = tumor supernatant + repeated gp100 +/− 0.5 mM GYY4137

SMILES: C1COCCN1.COc1ccc(P(=S)(S)N2CCOCC2)cc1 (stereo not drawn) [GYY4137]
- GM130 expression under Golgi stress, control (siCtl) T cells (Prdx4 knockdown T cells; 50 mM H2O2 +/− 0.5 mM GYY4137): prevented the decrease in GM130 expression
- GM130 expression under Golgi stress, Prdx4 knockdown (siPrdx4) T cells (Prdx4 knockdown T cells; 50 mM H2O2 +/− 0.5 mM GYY4137, listed as H2S): protective effect was absent; also recorded: absent when Prdx4 was knocked down
- increase in protein translation, Prdx4 knockdown T cells (Prdx4 knockdown T cells; +/− GYY4137): not observed
- loss of Prdx4 localization within the Golgi under prolonged oxidative stress [1]: loss of colocalization was mitigated
- protective effect on H2O2-induced Golgi stress (GM130) (Jurkat cells): only observed in Jurkat cells expressing wildtype Prdx4
- oxidative stress-induced increase of phospho-PERK, phospho-IRE1a, ATF4 [2]: this increase was mitigated
- Tet activity (Tet): decrease of Tet activity
- Golgi stress (GM130 expression) (Pmel CD8+ T cells): reverted
- Golgi stress (GM130 expression) (Pmel CD8+ T cells; listed as H2S donor): decrease in GM130 expression was mitigated
- ER stress (high phosphorylated-PERK) (Pmel CD8+ T cells; in vitro TME exhaustion model): mitigated
- Tcm phenotype (Pmel CD8+ T cells; [3]): preserve the Tcm phenotype
- expression of exhaustion markers PD1, TIM3, Lag3, CD38 (Pmel CD8+ T cells; [3]): decreased expression of T cell exhaustion markers PD1, TIM3, Lag3, and CD38
- expression of Foxo1 (intranuclear staining) (Cbs-KO T cells; Cbs-KO T cells +/− GYY4137): restored
- ER stress (pPERK) (Cbs-KO T cells; Cbs-KO T cells, 12 hour Thapsigargin (700 nM)): reduced
- Tcm fraction (Cbs-KO T cells; H2S added to Cbs-KO T cells): restoration of the Tcm fraction
